From publication PMC6434189, “Peperomin E and its orally bioavailable analog induce oxidative stress-mediated apoptosis of acute myeloid leukemia progenitor cells by targeting thioredoxin reductase” (Redox Biology, 2019)

Tests used:
recombinant human TrxR1 = molecular target: T1, recombinant human TrxR1 (Homo sapiens, UniProt Q16881); test: In vitro TrxR1 activity assay (DTNB reduction); format: biochemical
T1 construct: purchased Abcam ab204206
T1 sequence (Q16881 1-499 isoform Q16881-5): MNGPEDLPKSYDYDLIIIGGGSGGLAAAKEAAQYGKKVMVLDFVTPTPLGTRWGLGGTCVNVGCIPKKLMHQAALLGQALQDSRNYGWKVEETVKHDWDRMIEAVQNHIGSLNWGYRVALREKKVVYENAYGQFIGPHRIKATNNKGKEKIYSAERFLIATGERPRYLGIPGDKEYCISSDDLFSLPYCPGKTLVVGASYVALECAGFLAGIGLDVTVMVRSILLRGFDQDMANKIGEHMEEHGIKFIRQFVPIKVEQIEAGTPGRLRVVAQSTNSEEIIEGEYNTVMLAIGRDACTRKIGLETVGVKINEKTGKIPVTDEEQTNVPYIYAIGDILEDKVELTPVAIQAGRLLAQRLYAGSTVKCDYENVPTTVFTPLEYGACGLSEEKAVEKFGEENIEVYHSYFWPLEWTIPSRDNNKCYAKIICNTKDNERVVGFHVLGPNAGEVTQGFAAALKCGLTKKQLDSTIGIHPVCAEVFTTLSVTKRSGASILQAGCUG
Protocol: The in vitro TrxR1 activity assay was performed using the DTNB reduction assay. Briefly, 0.1 μM recombinant human TrxR1 or TrxR1 without Sec498 residue (TrxR1 nSec) protein was reduced with 100 μM NADPH in assay buffer (50 mM Tris-HCl, 1 mM EDTA, pH = 7.5) for 30 min at room temperature. The reduced proteins was then treated with the indicated concentrations of PepE (final concentrations of 0.25, 0.5, 1, 2, 4, 6 μM), respectively, and incubated for 1 h at 37 °C. A mixture of assay buffer solution (50 mM Tris-HCl, 1 mM EDTA, pH = 7.5) containing DTNB and NADPH was added then added, making the final concentrations of DTNB and NADPH 2 mM and 200 μM, respectively. The absorbance was monitored at 412 nm using the SpectraMax i3x microplate reader (Molecular Devices). The linear increase of absorbance during the initial 3 min was recorded for calculating the relative enzyme activity. The same amount of DMSO was added to the control experiments and the activity is expressed as the percentage of the control.

[1] = system: Trx-ASK1 complex in KG-1a CD34+ cells; test: Trx1 immunoprecipitation, Trx-ASK1 interaction; format: cell-based, human; conditions: 0.5, 2.0, 5.0 μM
Protocol: The KG-1a CD34^+ cells were treated with PepE or vehicle control (DMSO) for 12 h. The cellular proteins were extracted by RIPA buffer and quantified by the Bradford method. For each cell lysate, a volume containing 1 mg protein was mixed with 1 μg anti-Trx1 antibody coupled to 20 μL protein G-Sepharose (Abcam) and tumbled at 4 °C for 2 h. The Sepharose beads were then washed three times at 4 °C with a washing buffer containing 50 mM Tris (pH = 7.4), 0.5 M NaCl, and 1 mM EGTA. The immunoprecipitated proteins were eluted and denatured by 2×SDS-PAGE loading buffer and then boiled for 5 min. The eluted solutions were then centrifuged at 12000 g; the supernatants were collected and stored at −20 °C for SDS-PAGE and western blot analyses.

GPX1 = molecular target: T2, GPX1 (Homo sapiens, UniProt P07203); test: BLI binding assay, GPX1
T2 construct: purchased Abcam
T2 sequence (P07203 1-203): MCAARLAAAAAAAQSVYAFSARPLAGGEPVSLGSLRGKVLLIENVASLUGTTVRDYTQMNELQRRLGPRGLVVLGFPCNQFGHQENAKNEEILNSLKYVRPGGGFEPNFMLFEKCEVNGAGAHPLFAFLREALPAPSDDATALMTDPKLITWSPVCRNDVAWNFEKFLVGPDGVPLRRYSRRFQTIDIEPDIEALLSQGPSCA
Protocol: (§1) The binding kinetics of PepE or PepA to purified recombinant proteins were determined using BLI on an Octet RED 96 system (ForteBio, Shanghai, China) following the manufacturer's protocol. All interaction analyses were performed at 25 °C in PBS with 0.2% DMSO. Purified recombinant proteins (0.9 μM, the TrxR1 full length and TrxR1 protein fragment were pre-reduced by 400 μM of NADPH before test) were pre-labeled with biotin using […] (Abcam) following the manufacturer's instruction. Loading of the Dip and Read Super Streptavidin (SSA) Biosensors (ForteBio) were conducted by exposing biotinylated proteins to biosensor tips for 2 h. The 96-well microplates used in the Octet were filled with 200 μL sample or buffer per well and agitated at 1000 rpm. The loaded biosensors were washed in buffer for 600 s and transferred to wells containing PepE at concentrations of 0.625, 1.25, 2.5, 5, and 10 μM or PepA at concentrations of 1.25, 2.5, 5, 10 and 20 μM, respectively, in the buffer. […] Reference measurements were conducted using the buffer instead of PepE (or PepA). A parallel set of SA unloaded biosensors was prepared to act as a control. […] Kinetic parameters (Kon and Kdis) and affinity (KD) were determined from a global fit to a 1:1 binding model of the data between proteins and PepE using Octet software (ForteBio).

TrxR1 nSec498 = molecular target: T3, TrxR1 nSec498 (Homo sapiens, UniProt Q16881); test: BLI binding assay, TrxR1 without Sec498; conditions: NADPH reduced TrxR1 nSec498 0.9 μM
T3 construct: protein fragment, without selenocysteine residue; purchased Abcam ab168011
T3 sequence (Q16881 11-497 isoform Q16881-5): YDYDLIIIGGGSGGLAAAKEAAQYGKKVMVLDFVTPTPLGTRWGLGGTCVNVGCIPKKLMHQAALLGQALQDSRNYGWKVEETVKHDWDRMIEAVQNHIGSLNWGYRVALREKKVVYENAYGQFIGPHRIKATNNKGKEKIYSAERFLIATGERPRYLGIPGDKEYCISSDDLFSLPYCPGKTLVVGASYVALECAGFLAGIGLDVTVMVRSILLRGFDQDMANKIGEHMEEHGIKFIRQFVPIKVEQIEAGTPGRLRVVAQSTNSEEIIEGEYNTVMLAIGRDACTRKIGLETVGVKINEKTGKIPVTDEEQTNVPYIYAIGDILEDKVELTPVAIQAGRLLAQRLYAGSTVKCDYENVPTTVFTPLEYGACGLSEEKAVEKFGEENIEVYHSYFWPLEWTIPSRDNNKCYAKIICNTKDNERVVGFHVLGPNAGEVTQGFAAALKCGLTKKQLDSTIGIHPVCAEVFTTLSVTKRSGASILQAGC
Protocol: as §1

NADPH-reduced TrxR1 = molecular target: T4, NADPH-reduced TrxR1 (Homo sapiens, UniProt Q16881); test: Bio-layer interferometry (BLI) binding assay, TrxR1
T4 construct: purchased Abcam ab204206
T4 sequence (Q16881 1-499 isoform Q16881-5): T1 sequence (Q16881 1-499 isoform Q16881-5)
Protocol: The binding kinetics of PepE or PepA to purified recombinant proteins were determined using BLI on an Octet RED 96 system (ForteBio, Shanghai, China) following the manufacturer's protocol. All interaction analyses were performed at 25 °C in PBS with 0.2% DMSO. Purified recombinant proteins (0.9 μM, the TrxR1 full length and TrxR1 protein fragment were pre-reduced by 400 μM of NADPH before test) were pre-labeled with biotin using […] (Abcam) following the manufacturer's instruction. Loading of the Dip and Read Super Streptavidin (SSA) Biosensors (ForteBio) were conducted by exposing biotinylated proteins to biosensor tips for 2 h. The 96-well microplates used in the Octet were filled with 200 μL sample or buffer per well and agitated at 1000 rpm. The loaded biosensors were washed in buffer for 600 s and transferred to wells containing PepE at concentrations of 0.625, 1.25, 2.5, 5, and 10 μM or PepA at concentrations of 1.25, 2.5, 5, 10 and 20 μM, respectively, in the buffer. […] Reference measurements were conducted using the buffer instead of PepE (or PepA). A parallel set of SA unloaded biosensors was prepared to act as a control. The sample-sensorgrams were corrected by subtracting the double reference curve. Kinetic parameters (Kon and Kdis) and affinity (KD) were determined from a global fit to a 1:1 binding model of the data between proteins and PepE using Octet software (ForteBio).

[2] = design: method as in earlier work; conditions: within 24 h; cited from earlier work

Row | IC50 (recombinant human TrxR1; DTNB reduction assay, NADPH-reduced TrxR1 0.1 μM, 1 h at 37 °C) [nM] | reversibility of TrxR1 inhibition (recombinant human TrxR1; removal of PepE by Sephadex G-25 desalting column did not recover activity (data not shown)) | Kd (GPX1) [nM] | kon (GPX1) [M⁻¹ s⁻¹] | Kd (TrxR1 nSec498) [nM] | kon (NADPH-reduced TrxR1) [M⁻¹ s⁻¹] | Kd (NADPH-reduced TrxR1; NADPH-reduced TrxR1 0.9 μM, 25 °C) [nM] | Kd (NADPH-reduced TrxR1; Table S3) [nM] | koff (NADPH-reduced TrxR1; read-out: Kdis) [s⁻¹] | Compound | amount of ASK1 bound to Trx1 [1] | stability in the cell cultural media (without cells) [2]
1 | 940 | irreversibly | 534000 | 6400 | 11900 | 12400 | 340 | 341 | 0.00423 | C=C1C(=O)OC[C@H]1C(c1cc(OC)c2c(c1)OCO2)c1cc(OC)c2c(c1)OCO2 [PepE, Peperomin E] | dose-dependent decrease | –
2 | – | – | – | – | – | – | – | – | – | COc1cc(C(c2cc(OC)c3c(c2)OCO3)[C@@H]2COC(=O)[C@H]2CN(C)CCO)cc2c1OCO2 [DMAPE, (2S,3S)-6-Methyl (hydroxyethyl) amino-2,6-dihydropeperomin E] | – | stable
